# Patent US20110165076A1, “NOVEL [F-18]- LABELLED L-GLUTAMIC ACID AND L-GLUTAMINE DERIVATIVES (I), USE THEREOF AND METHOD FOR THEIR PRODUCTION” (BAYER SCHERING PHARMA AKTIENGESELLSCHAFT, priority 2008, published 2011)
# How the values were obtained:
# [1] = system: A549 cells; experiment: Competition cell experiment: uptake of tracer 4R/S-[F-18]F-L-glutamic acid in presence of competitor; format: cell-based, human; settings: competitor 1 mM; for % Tracer uptake: A549 cells, 10 min incubation with 0.250 MBq 4R/S-[F-18]F-L-Glu in PBS buffer; for inhibition of tracer uptake (competition): tracer 4R/S-[F-18]F-L-glutamic acid
# Description: The uptake of the glutamic acid derivatives according to the invention into tumour cells was investigated in cell experiments. Here, the uptake of a radiolabelled glutamic acid derivative (4R/S—[F-18]F-L-glutamic acid) was examined in the presence of the compounds according to the invention and control susbtances (competition experiments). The compounds according to the invention were employed in excess (1 mM) over 4R/S—[F-18]F-L-glutamic acid (tracer).
# [2] = system: A549 and H460 tumour cells; experiment: Cell uptake of F-18-labelled glutamic acid derivative in tumour cells; settings: for cellular uptake (FIG. 2): after 30 min
# Description: Following labelling with F-18, (2S,4S)-2-amino-4-(3-[F-18]fluoropropyl)pentanedioic acid was examined in cell experiments with A549 and H460 tumour cells (both human non-small-cell bronchial carcinoma cell lines).
# [3] = system: A549 tumour; experiment: PET/CT imaging in mice bearing A549 tumours; format: in vivo; settings: 60 min after i.v. 10 MBq, 20 min acquisition
# [4] = system: A549 tumours; experiment: Organ distribution experiment in mice bearing A549 tumours; format: in vivo; settings: for % dose/g adrenals / % dose/g blood / % dose/g bone / % dose/g brain / % dose/g fat / % dose/g heart / % dose/g intestine / % dose/g kidney / % dose/g liver / % dose/g lung / % dose/g muscle / % dose/g ovary / % dose/g pancreas / % dose/g skin / % dose/g spleen / % dose/g stomach / % dose/g tail / % dose/g thyroid / % dose/g tumour / % dose/g uterus: i.v. 250 kBq
# [5] = system: H460 tumour; experiment: PET in rats bearing H460 tumours; format: in vivo; settings: 80 min after i.v. 18 MBq, 20 min acquisition
compound,measurement,setting,value
C[C@@H](C[C@H](N)C(=O)O)C(=O)O [(4S)-methyl-L-Glu],% Tracer uptake,[1],7.7%
same,inhibition of tracer uptake (competition),[1],92%
N[C@@H](C[C@@H](O)C(=O)O)C(=O)O [(4R)-hydroxy-L-Glu],% Tracer uptake,[1],29.6%
same,inhibition of tracer uptake (competition),[1],70%
"N[C@@H](C[C@H](CCCF)C(=O)O)C(=O)O [4S-(3-fluoropropyl)-L-Glu, (2S,4S)-2-Amino-4-(3-fluoropropyl)pentanedioic acid]",% Tracer uptake,[1],5.4%
same,inhibition of tracer uptake (competition),[1],> 94%
"OC[C@H]1OC(O)[C@H]([18F])[C@@H](O)[C@@H]1O (stereo partly shown) [[F-18]FDG, [^18F]-2-Fluorodeoxyglucose, reference compound]",cellular uptake (FIG. 2),[2],770 000 cpm/100 000 cells
C[C@H](C[C@H](N)C(=O)O)C(=O)O [(4R)-methyl-L-Glu],% Tracer uptake,[1],33.5%
same,inhibition of tracer uptake (competition),[1],64%
"N[C@@H](CCC(=O)O)C(=O)O [L-Glu, L-configured glutamic acid]",% Tracer uptake,[1],12.6%
same,inhibition of tracer uptake (competition),[1],87%
NC(CC(F)C(=O)O)C(=O)O [(4R/S)-fluoro-D/L-Glu],% Tracer uptake,[1],16.3%
N[C@@H](C[C@H](O)C(=O)O)C(=O)O [(4S)-hydroxy-L-Glu],% Tracer uptake,[1],13.2%
same,inhibition of tracer uptake (competition),[1],87%
N[C@@H](C[C@H](CCC[18F])C(=O)O)C(=O)O,uptake into the A549 tumour (PET/CT image analysis),[3],high uptake
same,% dose/g adrenals,[4]; 0.25 h,0.94 % dose/g
same,% dose/g adrenals,[4]; 0.5 h,0.78 % dose/g
same,% dose/g adrenals,[4]; 1.0 h,0.27 % dose/g
same,% dose/g adrenals,[4]; 2.00 h,0.20 % dose/g
same,% dose/g blood,[4]; 0.25 h,0.72 % dose/g
same,% dose/g blood,[4]; 0.5 h,0.35 % dose/g
same,% dose/g blood,[4]; 1.0 h,0.13 % dose/g
same,% dose/g blood,[4]; 2.00 h,0.07 % dose/g
same,% dose/g bone,[4]; 0.25 h,0.44 % dose/g
same,% dose/g bone,[4]; 0.5 h,0.37 % dose/g
same,% dose/g bone,[4]; 1.0 h,0.20 % dose/g
same,% dose/g bone,[4]; 2.00 h,0.20 % dose/g
same,uptake into the bones,"[4]; bones, at all points in time",< 0.5 % ID/g
same,% dose/g brain,[4]; 0.25 h,0.09 % dose/g
same,% dose/g brain,[4]; 0.5 h,0.10 % dose/g
same,% dose/g brain,[4]; 1.0 h,0.06 % dose/g
same,% dose/g brain,[4]; 2.00 h,0.05 % dose/g
same,% dose/g fat,[4]; 0.25 h,0.31 % dose/g
same,% dose/g fat,[4]; 0.5 h,0.08 % dose/g
same,% dose/g fat,[4]; 1.0 h,0.04 % dose/g
same,% dose/g fat,[4]; 2.00 h,0.09 % dose/g
same,% dose/g heart,[4]; 0.25 h,0.42 % dose/g
same,% dose/g heart,[4]; 0.5 h,0.20 % dose/g
same,% dose/g heart,[4]; 1.0 h,0.08 % dose/g
same,% dose/g heart,[4]; 2.00 h,0.05 % dose/g
same,% dose/g intestine,[4]; 0.25 h,1.27 % dose/g
same,% dose/g intestine,[4]; 0.5 h,0.90 % dose/g
same,% dose/g intestine,[4]; 1.0 h,0.52 % dose/g
same,% dose/g intestine,[4]; 2.00 h,0.32 % dose/g
same,% dose/g kidney,[4]; 0.25 h,14.38 % dose/g
same,% dose/g kidney,[4]; 0.5 h,6.44 % dose/g
same,% dose/g kidney,[4]; 1.0 h,2.01 % dose/g
same,% dose/g kidney,[4]; 2.00 h,0.80 % dose/g
same,uptake in kidneys,"[4]; kidneys, after 0.25 h",14.4 % ID/g
same,activity in kidneys,"[4]; kidneys, after 1 h",2 % ID/g
same,% dose/g liver,[4]; 0.25 h,0.55 % dose/g
same,% dose/g liver,[4]; 0.5 h,0.46 % dose/g
same,% dose/g liver,[4]; 1.0 h,0.21 % dose/g
same,% dose/g liver,[4]; 2.00 h,0.11 % dose/g
same,% dose/g lung,[4]; 0.25 h,1.35 % dose/g
same,% dose/g lung,[4]; 0.5 h,1.08 % dose/g
same,% dose/g lung,[4]; 1.0 h,0.50 % dose/g
same,% dose/g lung,[4]; 2.00 h,0.29 % dose/g
same,% dose/g muscle,[4]; 0.25 h,0.17 % dose/g
same,% dose/g muscle,[4]; 0.5 h,0.09 % dose/g
same,% dose/g muscle,[4]; 1.0 h,0.05 % dose/g
same,% dose/g muscle,[4]; 2.00 h,0.03 % dose/g
same,% dose/g ovary,[4]; 0.25 h,1.82 % dose/g
same,% dose/g ovary,[4]; 0.5 h,1.13 % dose/g
same,% dose/g ovary,[4]; 1.0 h,0.94 % dose/g
same,% dose/g ovary,[4]; 2.00 h,0.28 % dose/g
same,% dose/g pancreas,"[4]; pancreas, 0.25 h",13.64 % dose/g
same,% dose/g pancreas,"[4]; pancreas, 0.5 h",8.51 % dose/g
same,% dose/g pancreas,"[4]; pancreas, 1.0 h",3.99 % dose/g
same,% dose/g pancreas,"[4]; pancreas, 2.00 h",1.35 % dose/g
same,uptake in pancreas,"[4]; pancreas, after 0.25 h",13.6 % ID/g
same,activity in pancreas,"[4]; pancreas, after 1 h",4 % ID/g
same,% dose/g skin,[4]; 0.25 h,1.71 % dose/g
same,% dose/g skin,[4]; 0.5 h,2.26 % dose/g
same,% dose/g skin,[4]; 1.0 h,1.80 % dose/g
same,% dose/g skin,[4]; 2.00 h,1.01 % dose/g
same,% dose/g spleen,[4]; 0.25 h,2.87 % dose/g
same,% dose/g spleen,[4]; 0.5 h,1.76 % dose/g
same,% dose/g spleen,[4]; 1.0 h,1.02 % dose/g
same,% dose/g spleen,[4]; 2.00 h,0.53 % dose/g
same,% dose/g stomach,[4]; 0.25 h,3.25 % dose/g
same,% dose/g stomach,[4]; 0.5 h,2.64 % dose/g
same,% dose/g stomach,[4]; 1.0 h,0.96 % dose/g
same,% dose/g stomach,[4]; 2.00 h,0.39 % dose/g
same,% dose/g tail,[4]; 0.25 h,2.74 % dose/g
same,% dose/g tail,[4]; 0.5 h,3.45 % dose/g
same,% dose/g tail,[4]; 1.0 h,1.19 % dose/g
same,% dose/g tail,[4]; 2.00 h,1.69 % dose/g
same,% dose/g thyroid,[4]; 0.25 h,1.17 % dose/g
same,% dose/g thyroid,[4]; 0.5 h,1.31 % dose/g
same,% dose/g thyroid,[4]; 1.0 h,0.77 % dose/g
same,% dose/g thyroid,[4]; 2.00 h,0.42 % dose/g
same,% dose/g tumour,"[4]; tumour, 0.25 h",2.42 % dose/g
same,injected dose per g in the tumour,"[4]; tumour, 0.25 h after injection",2.4 % ID/g
same,% dose/g tumour,"[4]; tumour, 0.5 h",1.82 % dose/g
same,% dose/g tumour,"[4]; tumour, 1.0 h",1.58 % dose/g
same,% dose/g tumour,"[4]; tumour, 2.00 h",0.97 % dose/g
same,tumour uptake,"[4]; tumour, after 1 h",1.6 % ID/g
same,% dose/g uterus,[4]; 0.25 h,1.30 % dose/g
same,% dose/g uterus,[4]; 0.5 h,1.27 % dose/g
same,% dose/g uterus,[4]; 1.0 h,0.93 % dose/g
same,% dose/g uterus,[4]; 2.00 h,0.37 % dose/g
same,cellular uptake (FIG. 2),[2],840 000 cpm/100 000 cells
same,cellular uptake,"[2]; after 30 min of incubation, A549 and H460 tumour cells",899 000 cpm per 100 000 cells
same,accumulation in tumour cells compared to [F-18]FDG,[2]; after 30 minutes of incubation,accumulates to a greater degree
same,uptake into the H460 tumour (PET image analysis),[5],high uptake
